Patent US12077503B2, “Substituted cyclic amides and their use as herbicides” (FMC CORPORATION, priority 2015, dated 2024)
Like-named read-outs stand apart in the source and are kept apart here.

Tests used:
Format in all cases: in vivo
[1] = tested on: giant foxtail (Setaria faberii); assay: Test A postemergence; settings: Setaria faberi, post-emergence, 240 h; for pest or weed control at 125 g/ha: 125 g ai/ha
How it was run: (§1)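 Seeds sprayed preemergence with a directed soil spray, or plants at 2 to 10 cm height and one- to two-leaf stage sprayed postemergence, with test chemicals in a non-phytotoxic solvent mixture containing surfactant, in loam soil–sand blend. Injury rated visually against untreated controls after about 10 d in greenhouse, 0 (no effect) to 100 (complete control).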

[2] = tested on: ragweed (common ragweed, Ambrosia elatior); assay: Test A postemergence; settings: Ambrosia artemisiifolia, post-emergence, 240 h; for pest or weed control at 125 g/ha: 125 g ai/ha
How it was run: as §1

[3] = tested on: wheat (Triticum aestivum); assay: Test A postemergence; settings: Triticum aestivum, post-emergence, 240 h; for plant injury at 125 g/ha: 125 g ai/ha
How it was run: as §1

[4] = tested on: corn (Zea mays); assay: Test A postemergence; settings: Zea mays, post-emergence, 240 h; for Corn plant response rating (crop injury, 0 = no effect, 100 = complete kill) at 125 g/ha: postemergence, visual injury after approximately 10 d
How it was run: as §1

[5] = tested on: Kochia (Kochia scoparia); assay: Test A postemergence; settings: Bassia scoparia, post-emergence, 240 h; for pest or weed control at 125 g/ha: 125 g ai/ha
How it was run: as §1

[6] = tested on: pigweed (Amaranthus retroflexus); assay: Test A postemergence; settings: Amaranthus retroflexus, post-emergence, 240 h; for pest or weed control at 125 g/ha: 125 g ai/ha
How it was run: as §1

[7] = tested on: blackgrass (Alopecurus myosuroides); assay: Test A postemergence; settings: Alopecurus myosuroides, post-emergence, 240 h; for pest or weed control at 125 g/ha: 125 g ai/ha
How it was run: as §1

[8] = tested on: barnyardgrass (Echinochloa crus-galli); assay: Test A postemergence; settings: Echinochloa crus-galli, post-emergence, 240 h; for pest or weed control at 125 g/ha: 125 g ai/ha
How it was run: as §1

[9] = tested on: Galium (catchweed bedstraw, Galium aparine); assay: Test A postemergence; settings: Galium, post-emergence, 240 h; for pest or weed control at 125 g/ha: 125 g ai/ha
How it was run: as §1

[10] = tested on: ryegrass, Italian (Italian ryegrass, Lolium multiflorum); assay: Test A postemergence; settings: Lolium multiflorum, post-emergence, 240 h; for pest or weed control at 125 g/ha: 125 g ai/ha
How it was run: as §1

[11] = tested on: sedge, umbrella (small-flower umbrella sedge, Cyperus difformis); assay: Test B flooded paddy test; settings: Cyperus difformis, 250 g ai/ha, Flood, read-out: Sedge, Umbrella plant response rating
How it was run: (§2)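 Plants at 2-leaf stage flooded to 3 cm above soil, with compounds applied directly to paddy water and that depth maintained. Plants kept in greenhouse 13–15 d. Visual rating versus controls on a 0 (no effect) to 100 (complete control) scale.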

[12] = tested on: ducksalad (Heteranthera limosa); assay: Test B flooded paddy test; settings: Heteranthera limosa, 250 g ai/ha, Flood, read-out: Ducksalad plant response rating
How it was run: as §2

[13] = tested on: barnyardgrass (Echinochloa crus-galli); assay: Test B flooded paddy test; settings: Echinochloa crus-galli, 250 g ai/ha, Flood, read-out: Barnyardgrass plant response rating
How it was run: as §2

[14] = tested on: rice (Oryra sativa); assay: Test B flooded paddy test; settings: Oryza sativa, 250 g ai/ha, Flood, read-out: Rice plant response rating
How it was run: as §2

[15] = 0 to 100 scale where 0 is no effect and 100 is complete control
[16] = postemergence, visual injury after approximately 10 d, 0 to 100 scale (0 no effect, 100 complete control), read-out: Plant response rating, Foxtail, Giant
[17] = postemergence, visual injury after approximately 10 d, 0 to 100 scale (0 no effect, 100 complete control), read-out: Plant response rating, Ragweed
[18] = postemergence, visual injury after approximately 10 d, 0 to 100 scale (0 no effect, 100 complete control), read-out: Plant response rating, Wheat
[19] = 125 g ai/ha, 0 to 100 scale (0 no effect, 100 complete control)
[20] = postemergence, visual injury after approximately 10 d, 0 to 100 scale (0 no effect, 100 complete control), read-out: Plant response rating, Kochia
[21] = postemergence, visual injury after approximately 10 d, 0 to 100 scale (0 no effect, 100 complete control), read-out: Plant response rating, Pigweed
[22] = postemergence, visual injury after approximately 10 d, 0 to 100 scale (0 no effect, 100 complete control), read-out: Plant response rating, Blackgrass
[23] = postemergence, visual injury after approximately 10 d, 0 to 100 scale (0 no effect, 100 complete control), read-out: Plant response rating, Barnyardgrass
[24] = postemergence, visual injury after approximately 10 d, 0 to 100 scale (0 no effect, 100 complete control), read-out: Plant response rating, Galium
[25] = postemergence, visual injury after approximately 10 d, 0 to 100 scale (0 no effect, 100 complete control), read-out: Plant response rating, Ryegrass, Italian
[26] = scale of 0 to 100 where 0 is no effect and 100 is complete control

COc1cc([C@H]2CN(C)C(=O)[C@@H]2C(=O)Nc2ccccc2F)ccc1F [Compound 1298]
pest or weed control at 125 g/ha ([1]; Postemergence, visual rating about 10 d after treatment, read-out: Foxtail, Giant plant response rating (0 to 100 scale)): 70%
pest or weed control at 500 g/ha ([1]; Postemergence, 500 g ai/ha, visual injury, 0 to 100 scale (0 no effect, 100 complete control), approx. 10 d, read-out: Plant response rating, Foxtail, Giant): 90%
pest or weed control at 125 g/ha ([2]; Postemergence, visual rating about 10 d after treatment, read-out: Ragweed plant response rating (0 to 100 scale)): 0%
pest or weed control at 500 g/ha ([2]; Postemergence, 500 g ai/ha, visual injury, 0 to 100 scale (0 no effect, 100 complete control), approx. 10 d, read-out: Plant response rating, Ragweed): 0%
plant injury at 125 g/ha ([3]; Postemergence, visual rating about 10 d after treatment, read-out: Wheat plant response rating (0 to 100 scale)): 0%
plant injury at 500 g/ha ([3]; Postemergence, 500 g ai/ha, visual injury, 0 to 100 scale (0 no effect, 100 complete control), approx. 10 d, read-out: Plant response rating, Wheat): 20%
plant injury at 125 g/ha ([4]; 125 g ai/ha, Postemergence, visual rating about 10 d after treatment, read-out: Corn plant response rating (0 to 100 scale)): 0%
Corn plant response rating (crop injury, 0 = no effect, 100 = complete kill) at 500 g/ha ([4]; Postemergence, 500 g ai/ha, visual injury, 0 to 100 scale (0 no effect, 100 complete control), approx. 10 d): 0%
pest or weed control at 125 g/ha ([5]; Postemergence, visual rating about 10 d after treatment, read-out: Kochia plant response rating (0 to 100 scale)): 0%
pest or weed control at 500 g/ha ([5]; Postemergence, 500 g ai/ha, visual injury, 0 to 100 scale (0 no effect, 100 complete control), approx. 10 d, read-out: Plant response rating, Kochia): 0%
pest or weed control at 125 g/ha ([6]; Postemergence, visual rating about 10 d after treatment, read-out: Pigweed plant response rating (0 to 100 scale)): 0%
pest or weed control at 500 g/ha ([6]; Postemergence, 500 g ai/ha, visual injury, 0 to 100 scale (0 no effect, 100 complete control), approx. 10 d, read-out: Plant response rating, Pigweed): 0%
pest or weed control at 125 g/ha ([7]; Postemergence, visual rating about 10 d after treatment, read-out: Blackgrass plant response rating (0 to 100 scale)): 0%
pest or weed control at 500 g/ha ([7]; Postemergence, 500 g ai/ha, visual injury, 0 to 100 scale (0 no effect, 100 complete control), approx. 10 d, read-out: Plant response rating, Blackgrass): 0%
pest or weed control at 125 g/ha ([8]; Postemergence, visual rating about 10 d after treatment, read-out: Barnyardgrass plant response rating (0 to 100 scale, 0 no effect, 100 complete control)): 80%
pest or weed control at 500 g/ha ([8]; Postemergence, 500 g ai/ha, visual injury, 0 to 100 scale (0 no effect, 100 complete control), approx. 10 d, read-out: Plant response rating, Barnyardgrass): 80%
pest or weed control at 125 g/ha ([9]; Postemergence, visual rating about 10 d after treatment, read-out: Galium plant response rating (0 to 100 scale)): 0%
pest or weed control at 500 g/ha ([9]; Postemergence, 500 g ai/ha, visual injury, 0 to 100 scale (0 no effect, 100 complete control), approx. 10 d, read-out: Plant response rating, Galium): 20%
pest or weed control at 125 g/ha ([10]; Postemergence, visual rating about 10 d after treatment, read-out: Ryegrass, Italian plant response rating (0 to 100 scale)): 0%
pest or weed control at 500 g/ha ([10]; Postemergence, 500 g ai/ha, visual injury, 0 to 100 scale (0 no effect, 100 complete control), approx. 10 d, read-out: Plant response rating, Ryegrass, Italian): 0%
pest or weed control at 250 g/ha [11, 15]: 0%
pest or weed control at 250 g/ha [12, 15]: 80%
pest or weed control at 250 g/ha [13, 15]: 50%
pest or weed control at 250 g/ha [14, 15]: 15%

CN1C[C@H](c2ccc(F)c(OC(F)(F)C(F)F)c2)[C@@H](C(=O)Nc2ccccc2F)C1=O [Compound 740]
pest or weed control at 125 g/ha [1, 16]: 90%
pest or weed control at 125 g/ha [2, 17]: 0%
plant injury at 125 g/ha [3, 18]: 50%
Corn plant response rating (crop injury, 0 = no effect, 100 = complete kill) at 125 g/ha [4, 19]: 70%
pest or weed control at 125 g/ha [5, 20]: 40%
pest or weed control at 125 g/ha [6, 21]: 40%
pest or weed control at 125 g/ha [7, 22]: 30%
pest or weed control at 125 g/ha [8, 23]: 90%
pest or weed control at 125 g/ha [9, 24]: 50%
pest or weed control at 125 g/ha [10, 25]: 50%
pest or weed control at 250 g/ha [11, 26]: 0%
pest or weed control at 250 g/ha [12, 26]: 100%
pest or weed control at 250 g/ha [13, 26]: 60%
pest or weed control at 250 g/ha [14, 26]: 50%

O=C1NC[C@H](c2ccc(C3CC3)cc2)[C@H]1C(=O)Nc1ccccc1F [Compound 727]
pest or weed control at 125 g/ha [1, 16]: 40%
pest or weed control at 125 g/ha [2, 17]: 0%
plant injury at 125 g/ha [3, 18]: 0%
Corn plant response rating (crop injury, 0 = no effect, 100 = complete kill) at 125 g/ha [4, 19]: 0%
pest or weed control at 125 g/ha [5, 20]: 0%
pest or weed control at 125 g/ha [6, 21]: 0%
pest or weed control at 125 g/ha [7, 22]: 30%
pest or weed control at 125 g/ha [8, 23]: 80%
pest or weed control at 125 g/ha [9, 24]: 0%
pest or weed control at 125 g/ha [10, 25]: 0%
pest or weed control at 250 g/ha [11, 26]: 0%
pest or weed control at 250 g/ha [12, 26]: 75%
pest or weed control at 250 g/ha [13, 26]: 0%
pest or weed control at 250 g/ha [14, 26]: 25%

CN1C[C@H](c2cccc(C(F)(F)F)c2)[C@@H](C(=O)Nc2ccccc2C2CC2)C1=O [Compound 749]
pest or weed control at 125 g/ha [1, 16]: 0%
pest or weed control at 125 g/ha [2, 17]: 0%
plant injury at 125 g/ha [3, 18]: 0%
Corn plant response rating (crop injury, 0 = no effect, 100 = complete kill) at 125 g/ha [4, 19]: 0%
pest or weed control at 125 g/ha [5, 20]: 0%
pest or weed control at 125 g/ha [6, 21]: 0%
pest or weed control at 125 g/ha [7, 22]: 0%
pest or weed control at 125 g/ha [8, 23]: 0%
pest or weed control at 125 g/ha [9, 24]: 0%
pest or weed control at 125 g/ha [10, 25]: 0%
pest or weed control at 250 g/ha [11, 26]: 0%
pest or weed control at 250 g/ha [12, 26]: 20%
pest or weed control at 250 g/ha [13, 26]: 0%
pest or weed control at 250 g/ha [14, 26]: 0%
